Several values for one entry are separate records, joined by “and”; a condition that tells them apart may be missing. Equal values may be shown once.
Legend:
[1] = system: duration of immobility in mice; experiment: Behavioural despair test (forced swimming); format: in vivo, outbred male mice; details: for Influence on duration of immobility, in words: forced swimming; for The duration of immobility: i.p.
Protocol: (§1) Compounds according to the present invention were checked for their influence on gross behaviour. The experiments described herein (Examples 11, 12, 13, 14, and 15) were carried out using outbred male mice weighing approximately 18-24 g. Each substance was administered intraperitoneally 45 min. before the experiment. Locomotor activity was estimated individually for each animal for 3 min. using an actometer `Era-1` (Russia).
The influence of compounds on behavioral despair was studied according to the model described by Porsolt et al., Arch. int. pharmacodyn.et ther., 228, 327-[…] (1977), which is incorporated herein by reference. Mice, when forced to swim in a cylinder of water without the possibility of escape, rapidly adopt a characteristic immobile posture. […] The only movements they make are those necessary to keep their heads above water.

[2] = system: rat behavior in Vogel conflict test; experiment: Vogel conflict test (anxiolytic activity, punished responses in water-deprived rats); format: in vivo, outbred male albino rats; details: rat
Description: Compounds according to the present invention were checked for their anxiolytic activity. Behaviour suppressed by punishment is a very reliable indicator of the anxiolytic activity of drugs. A variant of the conflict situation test was used to reveal anxiety in water-deprived rats whose licking was suppressed by shock (see Vogel et al., Phychopharmacologia, 21, 1-7 (1971); J. E. Barrett in Animal Models in Psychopharmacology, Advances in Pharmacological Sciences, 1991; and Birkhauser Verlag, Basel, p. 37.52, Molodavkin et al., Exper. Clin. Pharmacol., 56, (1993), which are incorporated herein by reference).
The experiments were carried out using outbred male albino rats (180-220 g). This experiment involved previous training of water-deprived rats to drink water from a trough. Next day electrical stimulation was given delivering 0.5 mA electric shocks through the trough and metal grid floor of the experimental chamber. A conflict situation was created by clashing motivations (survival and self defense). The degree of anxiolytic activity was estimated by the measurement of the amount of punished licks for 10 min. Each compound was administered intraperitoneally 45 min. before the conflict test.

[3] = system: locomotor activity in mice; experiment: Locomotor activity in mice (actometer); format: in vivo, outbred male mice; details: i.p.
Protocol: as §1

Acute toxicity in mice = details: mouse, in vivo, ip, mice, i.p., lethality 24 hours later, Table 6 (range in brackets beside); read-out: LD50
Protocol: as §1
The compounds of the present invention were checked for acute toxicity in outbred male mice (18-22 g.). They were administered intraperitoneally and the lethality was estimated 24 hours later (Table 6). In the dose range of 500-1000 mg/kg i.p. Compound 1 caused death in 50% of the animals. Compound 1 is almost 5 times less toxic than other compounds.

[4] = system: aggressive behavior in mice; experiment: Antiaggressive activity (threshold of aggressive behavior, electrified floor); format: in vivo, outbred male mice
Protocol: as §1
The effect of Compound 1 on the threshold of the aggressive behavior was determined in the experiment on outbred mice (R. Tedesci et al., J. Pharmacol. Exp. Ther., 125, 28-34, (1959), which is incorporated herein by reference). The paired mice were placed on the electrified floor. The strength of the current, which provoked the fighting, was recorded.

motor behavior in mice [5] = experiment: Horizontal wire test (coordination of movements and myorelaxation); details: mice
Protocol: (§2) The influence of Compound 1 on the motor behavior was studied according to a "rotating rod" test and a "horizontal wire" test in outbred male mice (18-22 g). A rotating rod (2 cm diameter and 5 rpm speed) was used. Acquisition was defined as the ability to remain on the rotating rod for 2 min. Each animal had two trials. According to the "horizontal wire" test a mouse was hung on the wire (0.3 cm. diameter, wire was fixed horizontally 40 cm above the floor) by the forepaws. The ability to pull the hind legs up to the wire for 2 min. was a criterion of test performance.

memory formation in rats = experiment: Passive avoidance test, step-through (memory formation, retention); format: in vivo, outbred male albino rats; details: rat, 5.0 mg/kg i.p., retention 24 hours later, 3 min
Protocol: The influence of Compound 1 on memory formation was studied in a passive avoidance test, step-through paradigm (equipment of Laffaette Co., USA). The experiments were carried out on outbred male albino rats ([…]). Compound 1 and other drugs were administered intraperitoneally 45 min. before the passive avoidance training. The retention was tested 24 hours later learning (painful electroshock in the dark compartment) by the measurement of the time spent in the dark compartment for 3 min.

[6] = Rotating rod test (coordination of movements and myorelaxation); details: mouse, in vivo
Protocol: as §2

motor behavior in mice [7] = experiment: as above; details: mice
Protocol: as §2

[8] = Horizontal wire test (coordination of movements and myorelaxation); details: mouse, in vivo
Protocol: as §2

[9] = 2.0 mg/kg i.p., 45 min before test, Table 1

Row | Structure (SMILES) | Influence on duration of immobility, in words [1] | The duration of immobility ([1]; 10.0 mg/kg) | The duration of immobility ([1]; 20.0 mg/kg) [s] | The number of punished responses [2, 9] | Influence on locomotor activity, in words [3] | The number of movements for 3 min., horizontal activity ([3]; 10.0 mg/kg) | The number of movements for 3 min., vertical activity ([3]; 10.0 mg/kg) | The number of movements for 3 min., horizontal activity ([3]; 20.0 mg/kg) | The number of movements for 3 min., vertical activity ([3]; 20.0 mg/kg) | LD50 at 24 h (Acute toxicity in mice) [mg/kg] | other results
1 | CC(=O)N1CCn2c(CN(C)C)ccc2C1 [Compound 2, hydrooxalate of 2-acetyl-6-(dimethylaminomethyl)-1,2,3,4-tetrahydropyrrolo-[1,2-a]-pyrazine] | increased the duration of immobility | 203.4 ± 14.1 s | 234.9 ± 12.6 | 63.00 ± 35.38 | decrease locomotor activity | 524.4 ± 36.9 | 10.0 ± 2.1 | 489.1 ± 9.7 | 22.4 ± 3.0 | 340 | –
2 | CC(=O)N1CCn2c(CN3CCCCC3)ccc2C1 [Compound 3, 2-Acetyl-6-(Piperidinomethyl)-1,2,3,4-Tetrahydropyrrolo-[1,2-]-Pyrazine] | increased the duration of immobility | 209.3 ± 6.5 s | 254.6 ± 10.9 | 22.00 ± 4.86 | decrease locomotor activity | 532.5 ± 42.1 | 8.1 ± 1.9 | 442.7 ± 30.3 | 9.2 ± 4.4 | 414 | –
3 | CC(=O)N1CCn2c(CN3CCOCC3)ccc2C1 [Compound 4, 2-Acetyl-6-(Morpholinomethyl)-1,2,3,4-Tetrahydropyrrolo-[1,2-a]-Pyrazine] | did not show any activity | 197.3 ± 5.9 s | 202.7 ± 6.7 | 9.25 ± 1.75 | – | 479.6 ± 22.8 | 17.6 ± 6.9 | 564.5 ± 22.5 | 24.7 ± 5.6 | 105 | –
4 | CN(C)Cc1ccc2n1CCN(C(=O)c1ccccc1)C2 [Compound 5, 2-Benzoyl-6-(Dimethylaminomethyl)-1,2,3,4-Tetrahydropyrrolo-[1,2-]-Pyrazine] | reduced the duration of immobility | 189.4 ± 10.3 s and 218.3 ± 12.1 s | 216.4 ± 14.2 | 85.25 ± 32.04 | – | 676.1 ± 34.5 | 36.1 ± 5.8 | 659.7 ± 32.7 | 36.6 ± 8.6 | 77 | –
5 | O=C(O)C(=O)O.O=C(c1ccccc1)N1CCn2c(CN3CCCCC3)ccc2C1 [Compound 6, 2-Benzoyl-6-(Piperidinomethyl)-1,2,3,4-Tetrahydropyrrolo-[1,2-a]-Pyrazine Hydrooxalate] | reduced the duration of immobility | 201.7 ± 13.1 s | – | 30.75 ± 13.17 | – | 693.0 ± 25.3 | 16.5 ± 6.2 | 644.0 ± 30.4 | 19.9 ± 3.4 | 389 | The duration of immobility ([1]; 1.0 mg/kg): 184.3 ± 11.7 s
6 | O=C(O)C(=O)O.O=C(c1ccccc1)N1CCn2c(CN3CCOCC3)ccc2C1 [Compound 7, 2-Benzoyl-6-(Morpholinomethyl)-1,2,3,4-Tetrahydropyrrolo-[1,2-a]-Pyrazine Hydrooxalate] | did not show any activity | 169.3 ± 11.8 s | 147.8 ± 7.1 | 25.00 ± 5.99 | decrease locomotor activity | 475.1 ± 11.2 | 13.7 ± 2.5 | 474.0 ± 14.7 | 12.4 ± 3.8 | 115 | –
7 | CN1C(=O)CN=C(c2ccccc2)c2cc(Cl)ccc21 [Diazepam, reference compound] | – | – | – | – | – | – | – | – | – | – | Aggression threshold ([4]; 1.0 mg/kg i.p.): 45.4 ± 9.5 V; Aggression threshold ([4]; 5.0 mg/kg i.p.): 92.4 ± 15.6 V; The number of punished responses ([2]; i.p., dose 1.0 mg/kg, Table 2): 22.25 ± 10.89; The number of punished responses ([2]; i.p., dose 2.0 mg/kg, Table 2): 47.25 ± 22.49; Disturbances according to horizontal wire test, effect in % (motor behavior in mice [5]; dose 1.0): 20%; Disturbances according to horizontal wire test, effect in % (motor behavior in mice [5]; dose 2.0): 40%; Disturbances according to horizontal wire test, effect in % (motor behavior in mice [5]; dose 5.0): 80%; The time spent in dark compartment (memory formation in rats): 127.7 ± 21.1 s; The time spent in light compartment (memory formation in rats): 52.3 ± 11.3 s
8 | CN1CCN=C(c2ccccc2)c2cc(Cl)ccc21 [Medazepam, reference compound] | – | – | – | – | – | – | – | – | – | – | Aggression threshold ([4]; 5.0 mg/kg i.p.): 32.2 ± 5.25 V; Aggression threshold ([4]; 10.0 mg/kg i.p.): 43.1 ± 4.2 V; TD50 [6]: 5.2 mg/kg; Disturbances according to rotating rod test, effect in % (motor behavior in mice [7]; dose 2.5): 40%; Disturbances according to rotating rod test, effect in % (motor behavior in mice [7]; dose 5.0): 50%; Disturbances according to rotating rod test, effect in % (motor behavior in mice [7]; dose 10.0): 96%; TD50 [8]: 7.5 mg/kg; Disturbances according to horizontal wire test, effect in % (motor behavior in mice [5]; dose 2.5): 33%; Disturbances according to horizontal wire test, effect in % (motor behavior in mice [5]; dose 5.0): 50%; Disturbances according to horizontal wire test, effect in % (motor behavior in mice [5]; dose 10.0): 75%; The time spent in dark compartment (memory formation in rats): 142.6 ± 19.58 s; The time spent in light compartment (memory formation in rats): 37.4 ± 19.5 s

From patent US5378846A, “1,2,3,4-tetrahydropyrrolo-[1,2-a]-pyrazine derivatives” (Russian-American Institute For New Drug Development, priority 1993, dated 1995)
